Test results published in US20170050957A1, “4-AMINO-6-(HETEROCYCLIC)PICOLINATES AND 6-AMINO-2-(HETEROCYCLIC)PYRIMIDINE-4-CARBOXYLATES AND THEIR USE AS HERBICIDES” (Dow AgroSciences LLC, priority 2013, published 2017).
Read-outs that look alike come from different tables or passages of the source. Blank lines part the entries; values can stand above or below the compound they belong to.

Experiments:
[1] = test system: Key Grass and Sedge Weeds as well as Grass Crops; assay: Post-emergent Test II herbicidal activity (Table 16); type: in vivo; conditions: for pest or weed control at 35 g/ha / pest or weed control at 70 g/ha / pest or weed control at 140 g/ha: post-emergence, 336 h, 14 days after application; for Visual Growth Reduction (%) 14 Days After Application, ECHCG / Visual Growth Reduction (%) 14 Days After Application, SETFA / Visual Growth Reduction (%) 14 Days After Application, ZEAMX / Visual Growth Reduction (%) 14 Days After Application, ORYSA / Visual Growth Reduction (%) 14 Days After Application, TRZAS / Visual Growth Reduction (%) 14 Days After Application, CYPES: 14 d
Procedure: (§1) Post-emergent Test II: Seeds or nutlets of the desired test plant species were planted in Sun Gro Metro-Mix® 360 planting mixture, which typically has a pH of 6.0 to 6.8 and an organic matter content of about 30 percent, in plastic pots with a surface area of 64 square centimeters. When required to ensure good germination and healthy plants, a fungicide treatment and/or other chemical or physical treatment was applied. The plants were grown for 7-21 d in a greenhouse with an approximate 15 h photoperiod which was maintained at about 23-29° C. during the day and 22-28° C. during the night. Nutrients and water were added on a regular basis and supplemental lighting was provided with overhead metal halide 1000-Watt lamps as necessary. The plants were employed for testing when they reached the first or second true leaf stage.
(§2) A weighed amount, determined by the highest rate to be tested, of each test compound was placed in a 25 mL glass vial and was dissolved in 4 mL of a 97:3 v/v mixture of acetone and DMSO to obtain concentrated stock solutions. […] The concentrated stock solutions obtained were diluted with 20 mL of an aqueous mixture containing acetone, water, isopropyl alcohol, DMSO, Atplus 411F crop oil concentrate, and Triton® X-155 surfactant in a 48.5:39:10:1.5:1.0:0.02 v/v ratio to obtain spray solutions containing the highest application rates. Additional application rates were obtained by serial dilution of 12 mL of the high rate solution into a solution containing 2 mL of 97:3 v/v mixture of acetone and DMSO and 10 mL of an aqueous mixture containing acetone, water, isopropyl alcohol, DMSO, Atplus 411F crop oil concentrate, and Triton X-155 surfactant in a 48.5:39:10:1.5:1.0:0.02 v/v ratio to obtain 1/2×, 1/4×, 1/8× and 1/16× rates of the high rate. Compound requirements are based upon a 12 mL application volume at a rate of 187 liters per hectare (L/ha). Formulated compounds were applied to the plant material with an overhead Mandel track sprayer equipped with 8002E nozzles calibrated to deliver 187 L/ha over an application area of 0.503 square meters at a spray height of 18 inches (43 cm) above the average plant canopy height. Control plants were sprayed in the same manner with the solvent blank.
(§3) The treated plants and control plants were placed in a greenhouse as described above and watered by subirrigation to prevent wash-off of the test compounds. After 14 d, the condition of the test plants as compared with that of the untreated plants was determined visually and scored on a scale of 0 to 100 percent where 0 corresponds to no injury and 100 corresponds to complete kill.

[2] = test system: Key Broadleaf Weed and Crop Species; assay: Post-emergent Test II herbicidal activity (Table 15); type: in vivo; conditions: post-emergence, 336 h, 14 d; for pest or weed control at 35 g/ha: 35 g ai/ha
Procedure: as §1, §2, §3

melting point: 173 to 175 °C
SMILES: Cn1ncc2c(-c3nc(C(=O)O)c(Cl)c(N)c3F)cccc21 [Compound 4.11]

melting point: 164 to 166 °C
SMILES: C=Cc1c(C(=O)OC)nc(-c2ccc3cc[nH]c3c2F)c(F)c1N [Compound 1.18, Methyl 4-amino-5-fluoro-6-(7-fluoro-1H-indol-6-yl)-3-vinylpicolinate]

melting point: 284 to 287 °C
SMILES: Nc1c(F)c(-c2ccc3[nH]ncc3c2)nc(C(=O)O)c1Cl [Compound 4.02]

melting point: 230 to 235 °C (dec.)
SMILES: Cn1cnc2ccc(-c3nc(C(=O)O)c(Cl)c(N)c3F)cc21 [Compound 7.03]

melting point: 149 to 150 °C
SMILES: Nc1c(F)c(-c2ccc3sccc3c2)nc(C(=O)O)c1Cl [Compound 3.04]

melting point: 158 to 160 °C
SMILES: Cn1ccc2c(-c3nc(C(=O)O)c(Cl)c(N)c3F)cccc21 [Compound 1.42]

melting point: 173 to 176 °C
SMILES: Cn1ccc2ccc(-c3nc(C(=O)O)c(Cl)c(N)c3F)cc21 [Compound 1.11]

melting point: 114 to 117 °C
SMILES: COC(=O)c1nc(-c2ccc3occc3c2)c(F)c(N)c1Cl [Compound 2.01]

melting point: 186 to 188 °C
SMILES: Cn1ncc2cc(-c3nc(C(=O)O)c(Cl)c(N)c3F)ccc21 [Compound 4.04]

melting point: 181 to 184 °C
SMILES: COC(=O)c1nc(-c2cccc3c(Br)csc23)c(F)c(N)c1Cl [Compound 3.26, Methyl 4-amino-6-(3-bromobenzo[b]thiophen-7-yl)-3-chloro-5-fluoropicolinate]

SMILES: COC(=O)c1nc(-c2ccc3c(N(C)C)noc3c2)c(F)c(N)c1Cl [Compound 8.01]
pest or weed control at 35 g/ha ([1]; Cyperus esculentus, yellow nutsedge (Cyperus esculentus), 35 g ai/ha, read-out: Visual Growth Reduction (%) 14 Days After Application CYPES): 0 to 29%
pest or weed control at 70 g/ha ([1]; Cyperus esculentus, yellow nutsedge (Cyperus esculentus), 70 g ai/ha, read-out: Visual Growth Reduction (%) 14 Days After Application CYPES): 0 to 29%
pest or weed control at 140 g/ha ([1]; Cyperus esculentus, yellow nutsedge (Cyperus esculentus), 140 g ai/ha, read-out: Visual Growth Reduction (%) 14 Days After Application CYPES): 0 to 29%
pest or weed control at 35 g/ha ([1]; Echinochloa crus-galli, barnyardgrass (Echinochloa crus-galli), 35 g ai/ha, read-out: Visual Growth Reduction (%) 14 Days After Application ECHCG): 0 to 29%
pest or weed control at 70 g/ha ([1]; Echinochloa crus-galli, barnyardgrass (Echinochloa crus-galli), 70 g ai/ha, read-out: Visual Growth Reduction (%) 14 Days After Application ECHCG): 0 to 29%
pest or weed control at 140 g/ha ([1]; Echinochloa crus-galli, barnyardgrass (Echinochloa crus-galli), 140 g ai/ha, read-out: Visual Growth Reduction (%) 14 Days After Application ECHCG): 0 to 29%
pest or weed control at 35 g/ha ([1]; Oryza sativa, rice (Oryza sativa), 35 g ai/ha, read-out: Visual Growth Reduction (%) 14 Days After Application ORYSA): 0 to 29%
pest or weed control at 70 g/ha ([1]; Oryza sativa, rice (Oryza sativa), 70 g ai/ha, read-out: Visual Growth Reduction (%) 14 Days After Application ORYSA): 0 to 29%
pest or weed control at 140 g/ha ([1]; Oryza sativa, rice (Oryza sativa), 140 g ai/ha, read-out: Visual Growth Reduction (%) 14 Days After Application ORYSA): 0 to 29%
pest or weed control at 35 g/ha ([1]; Setaria faberi, giant foxtail (Setaria faberi), 35 g ai/ha, read-out: Visual Growth Reduction (%) 14 Days After Application SETFA): 0 to 29%
pest or weed control at 70 g/ha ([1]; Setaria faberi, giant foxtail (Setaria faberi), 70 g ai/ha, read-out: Visual Growth Reduction (%) 14 Days After Application SETFA): 0 to 29%
pest or weed control at 140 g/ha ([1]; Setaria faberi, giant foxtail (Setaria faberi), 140 g ai/ha, read-out: Visual Growth Reduction (%) 14 Days After Application SETFA): 0 to 29%
pest or weed control at 35 g/ha ([1]; Triticum aestivum, wheat, spring (Triticum aestivum), 35 g ai/ha, read-out: Visual Growth Reduction (%) 14 Days After Application TRZAS): 0 to 29%
pest or weed control at 70 g/ha ([1]; Triticum aestivum, wheat, spring (Triticum aestivum), 70 g ai/ha, read-out: Visual Growth Reduction (%) 14 Days After Application TRZAS): 0 to 29%
pest or weed control at 140 g/ha ([1]; Triticum aestivum, wheat, spring (Triticum aestivum), 140 g ai/ha, read-out: Visual Growth Reduction (%) 14 Days After Application TRZAS): 0 to 29%
pest or weed control at 35 g/ha ([1]; Zea mays, maize, corn (Zea mays), 35 g ai/ha, read-out: Visual Growth Reduction (%) 14 Days After Application ZEAMX): 0 to 29%
pest or weed control at 70 g/ha ([1]; Zea mays, maize, corn (Zea mays), 70 g ai/ha, read-out: Visual Growth Reduction (%) 14 Days After Application ZEAMX): 0 to 29%
pest or weed control at 140 g/ha ([1]; Zea mays, maize, corn (Zea mays), 140 g ai/ha, read-out: Visual Growth Reduction (%) 14 Days After Application ZEAMX): 0 to 29%
pest or weed control at 35 g/ha ([2]; Abutilon theophrasti, velvetleaf (Abutilon theophrasti), read-out: Visual Growth Reduction (%) 14 Days After Application, ABUTH): 0 to 29%
pest or weed control at 35 g/ha ([2]; Amaranthus retroflexus, redroot pigweed (Amaranthus retroflexus), read-out: Visual Growth Reduction (%) 14 Days After Application, AMARE): 0 to 29%
pest or weed control at 35 g/ha ([2]; Brassica napus, oilseed rape, canola (Brassica napus), read-out: Visual Growth Reduction (%) 14 Days After Application, BRSNN): 0 to 29%
pest or weed control at 70 g/ha ([2]; Brassica napus, oilseed rape, canola (Brassica napus), 70 g ai/ha, read-out: Visual Growth Reduction (%) 14 Days After Application, BRSNN): 0 to 29%
pest or weed control at 140 g/ha ([2]; Brassica napus, oilseed rape, canola (Brassica napus), 140 g ai/ha, read-out: Visual Growth Reduction (%) 14 Days After Application, BRSNN): 0 to 29%
pest or weed control at 35 g/ha ([2]; Chenopodium album, lambsquarters (Chenopodium album), read-out: Visual Growth Reduction (%) 14 Days After Application, CHEAL): 0 to 29%
pest or weed control at 35 g/ha ([2]; Euphorbia heterophylla, wild poinsettia (Euphorbia heterophylla), read-out: Visual Growth Reduction (%) 14 Days After Application, EPHHL): 0 to 29%
pest or weed control at 35 g/ha ([2]; Helianthus annuus, sunflower (Helianthus annuus), read-out: Visual Growth Reduction (%) 14 Days After Application, HELAN): 0 to 29%

melting point: 181 to 182 °C
SMILES: C=Cc1c(N)nc(-c2ccc3cc[nH]c3c2F)nc1C(=O)OC [Compound 1.38]

melting point: 219 to 221 °C
SMILES: COC(=O)c1nc(-c2ccc3nc[nH]c3c2)c(F)c(N)c1Cl [Compound 7.01]

melting point: 167 to 169 °C
SMILES: COC(=O)c1nc(-c2cccc3c2ccn3C)c(F)c(N)c1Cl [Compound 1.41]

melting point: 147 to 149 °C
SMILES: COC(=O)c1nc(-c2ccc(Cl)c3cc[nH]c23)nc(N)c1OC [Compound 1.50]

melting point: 212 to 215 °C
SMILES: COC(=O)c1nc(-c2cccc3[nH]ncc23)c(F)c(N)c1Cl [Compound 4.12]

SMILES: Nc1c(Cl)c(C(=O)O)nc(-c2ccc3cc[nH]c3c2)c1Cl [Compound 106]
Visual Growth Reduction (%) 14 Days After Application, ECHCG ([1]; barnyardgrass (Echinochloa crus-galli), 35 g ai/ha): G (0-29)
Visual Growth Reduction (%) 14 Days After Application, ECHCG ([1]; barnyardgrass (Echinochloa crus-galli), 70 g ai/ha): D (60-74)
Visual Growth Reduction (%) 14 Days After Application, ECHCG ([1]; barnyardgrass (Echinochloa crus-galli), 140 g ai/ha): C (75-84)
Visual Growth Reduction (%) 14 Days After Application, SETFA ([1]; giant foxtail (Setaria faberi), 35 g ai/ha): G (0-29)
Visual Growth Reduction (%) 14 Days After Application, SETFA ([1]; giant foxtail (Setaria faberi), 70 g ai/ha): G (0-29)
Visual Growth Reduction (%) 14 Days After Application, SETFA ([1]; giant foxtail (Setaria faberi), 140 g ai/ha): G (0-29)
Visual Growth Reduction (%) 14 Days After Application, ZEAMX ([1]; maize, corn (Zea mays), 35 g ai/ha): G (0-29)
Visual Growth Reduction (%) 14 Days After Application, ZEAMX ([1]; maize, corn (Zea mays), 70 g ai/ha): G (0-29)
Visual Growth Reduction (%) 14 Days After Application, ZEAMX ([1]; maize, corn (Zea mays), 140 g ai/ha): G (0-29)
Visual Growth Reduction (%) 14 Days After Application, ORYSA ([1]; rice (Oryza sativa), 35 g ai/ha): G (0-29)
Visual Growth Reduction (%) 14 Days After Application, ORYSA ([1]; rice (Oryza sativa), 70 g ai/ha): G (0-29)
Visual Growth Reduction (%) 14 Days After Application, ORYSA ([1]; rice (Oryza sativa), 140 g ai/ha): G (0-29)
Visual Growth Reduction (%) 14 Days After Application, TRZAS ([1]; wheat, spring (Triticum aestivum), 35 g ai/ha): G (0-29)
Visual Growth Reduction (%) 14 Days After Application, TRZAS ([1]; wheat, spring (Triticum aestivum), 70 g ai/ha): G (0-29)
Visual Growth Reduction (%) 14 Days After Application, TRZAS ([1]; wheat, spring (Triticum aestivum), 140 g ai/ha): G (0-29)
Visual Growth Reduction (%) 14 Days After Application, CYPES ([1]; yellow nutsedge (Cyperus esculentus), 35 g ai/ha): G (0-29)
Visual Growth Reduction (%) 14 Days After Application, CYPES ([1]; yellow nutsedge (Cyperus esculentus), 70 g ai/ha): G (0-29)
Visual Growth Reduction (%) 14 Days After Application, CYPES ([1]; yellow nutsedge (Cyperus esculentus), 140 g ai/ha): G (0-29)
